The test system of experiment [1] is C. glutamicum ATCC 21799 pAPE7 tdcB. In kind it is cell-based, Corynebacterium glutamicum. The note with it: defined medium with supplement (casamino acids 2 g·l^−1, amino acids 0.5 g·l^−1 each), 150 mg/l IPTG, flasks. Here is the method:
Defined medium for Corynebacterium glutamicum contained the following ingredients (per liter): glucose, 35 g; NaCl, 2 g; citrate (trisodium salt, dihydrate), 3 g; CaCl2.2H2O, 0.1 g; MgSO4.7H2O, 0.5 g; Na2EDTA.2H2O, 75 mg; FeSO4.7H2O, 50 mg; 100× salt solution, 20 ml; K2HPO4, 4 g; KH2PO4, 2 g; (NH4)2SO4, 7.5 g; urea, 3.75 g; leucine 0.85 g; thiamine, 0.45 mg; biotin, 0.45 mg; pantothenic acid, 4.5 mg (pH 7.0). The salt solution contained the following ingredients (per liter): MnSO4, 200 mg; Na2B4O7.10H2O, 20 mg; (NH4)6Mo7O24.4H2O, 10 mg; FeCl3.6H2O, 200 mg; ZnSO4.7H2O, 50 mg; CuCl2.2H2O, 20 mg (pH 2.0). When appropriate, kanamycin (150 mg/liter) and isopropyl-β-D-thiogalactopyranoside (IPTG) (150 mg/l) was used.
For the growth study with amino acid supplements, the defined medium was complemented with Bacto® casamino acids (Difco, Detroit, Mich.) at a concentration of 2 g·l^−1 or with amino acid (alanine, glycine, methionine or valine) at a concentration of 0.5 g·l^−1 each.
Valine and methionine were chosen to test due to their direct connection with the isoleucine pathway, and alanine and glycine for their indirect connection through the use of pyruvate, which is also a substrate for the isoleucine pathway.

A further experiment concerns C. glutamicum ATCC 21799. As to the kind of experiment: IPTG addition in batch fermentation of wild type ATCC 21799. The class given is cell-based, Corynebacterium glutamicum. As to conditions: wild type culture, IPTG 150 mg/l. Here is the method:
(§1) For determination of threonine dehydratase activity, the assay mixture contained 40 mM threonine, 1 mM pyridoxal phosphate, crude extract and 100 mM potassium phosphate buffer, pH 8.0 in a final volume of 1 ml. The reaction was started with the addition of threonine and terminated by the addition of 1 ml solution containing 1% semicarbazide and 0.9% sodium acetate. After a 15 min incubation at room temperature, the amount of alpha-ketobutyrate formed at various intervals was measured spectrophotometrically as its semicarbazone derivative at 254 nm (=0.52 mmol·cm^−1). Relevant standards and controls were carried out in the same manner. For specific determination of catabolic threonine dehydratase activity, the assay mixture contained 20 mM isoleucine in order to inhibit the anabolic threonine dehydratase.
In FIGS. 3-6, the results of the enzymatic assays are expressed in terms of relative expression of threonine dehydratase compared to wild type expression as the ratio between the specific activity of the enzyme of a strain and the specific activity of the wild type. […]
C. glutamicum ATCC 21799 was grown twice in defined medium in a 4-liter reactor. […] A concentration of isoleucine of 50 mg·l^−1 was detected at the end of both cultures. Oxygenation of the cultures being sufficient, neither lactate nor acetate was detected during the fermentation.

For experiment [2], the system named is C. glutamicum ATCC 21799 harboring pAPE7. As to the kind of experiment: IPTG induction of catabolic threonine dehydratase in batch fermentation of ATCC 21799 (pAPE7). The class given is cell-based, Corynebacterium glutamicum. The note with it: IPTG 150 mg/l. Here is the method:
as §1
(§2) In FIGS. 3-6, the results of the enzymatic assays are expressed in terms of relative expression of threonine dehydratase compared to wild type expression as the ratio between the specific activity of the enzyme of a strain and the specific activity of the wild type. Each assay was replicated five times, and the results were reproducible within 15%.
(§3) Starter cultures of Corynebacterium glutamicum were prepared by transferring one colony from LB agar plates to 5 ml of LB medium. These cultures were incubated for two days at 30° C. and 200 rpm. […]

Experiment [3] relates to C. glutamicum ATCC 21799 harboring pAPE13. Description: IPTG induction of threonine dehydratase in batch fermentation of ATCC 21799 (pAPE13). In kind it is cell-based, Corynebacterium glutamicum. As to conditions: IPTG 150 mg/l added at 1.5 g cell dry weight·l^−1. Here is the method:
as §1, §2, §3

Another experiment relates to AHAS. The note with it: Eggeling et al. 1987; cited from earlier work.
For experiment [4], the target named is T1, Anabolic threonine dehydratase (Corynebacterium glutamicum, UniProt Q04513).
T1 construct: endogenous in cells; host or cells: Corynebacterium glutamicum ATCC 21799; cell-free crude extract
As to the kind of experiment: Isoleucine sensitivity of anabolic (native) threonine dehydratase in crude extracts of C. glutamicum ATCC21799. In kind it is biochemical. As to conditions: ATCC 21799 crude extract. Here is the method:
(§4) Enzyme assays were performed with cell free crude extracts, prepared by the following method. Cells were harvested by centrifugation for 10 min at 5000×g at 4° C. and washed with 10 ml of the enzyme assay buffer (100 mM Tris-HCl, pH 7.5, containing 20 mM KCl, 5 mM MnSO4, 0.1 mM EDTA, and 2 mM dithiothreitol) (Jetten, M. S. M., et al., Appl. Microbiol. Biotechnol. 41:47-52 (1994)). The cell pellet was resuspended in the same buffer containing a protease inhibitor cocktail (Boehringer Mannheim, Germany) so that the final concentration was 20 g dry cell weight·l^−1. Resuspended cells were disrupted with a glass bead mixer (5100 Mixer-Mill, SPEX, Metuchen, N.J.). […] Protein concentrations were determined by the method of Bradford (Bradford, M. M., Anal. Biochem. 72:248-254 (1976)) with the Bio-Rad (Hercules, Calif.) protein assay kit using bovine serum albumin as a standard.
(§5) For determination of threonine dehydratase activity, the assay mixture contained 40 mM threonine, 1 mM pyridoxal phosphate, crude extract and 100 mM potassium phosphate buffer, pH 8.0 in a final volume of 1 ml. […] After a 15 min incubation at room temperature, the amount of alpha-ketobutyrate formed at various intervals was measured spectrophotometrically as its semicarbazone derivative at 254 nm (=0.52 mmol·cm^−1). […]

The next experiment has as its target T2, tdcB gene product (Escherichia coli, UniProt P0AGF6).
T2 construct: tdcB and ilvA coding regions were amplified by the Polymerase Chain Reaction (PCR); expressed in transfected cells; host or cells: E. coli AB1255 carrying pAPE5 (pTrc99a-based, trc:tdcB); cell-free crude extract
Description: Threonine dehydratase activity of E. coli AB1255 (pAPE5) crude extracts in the presence of isoleucine. The note with it: isoleucine up to 47 mM; consistent activity. The class given is biochemical. Here is the method: as §4, §5

Experiment [5] addresses T3, endogenous threonine dehydratase (encoded by ilvA) (Corynebacterium glutamicum, UniProt Q04513).
T3 construct: host or cells: Corynebacterium glutamicum MH20-22B
T3 sequence (Q04513 1-436): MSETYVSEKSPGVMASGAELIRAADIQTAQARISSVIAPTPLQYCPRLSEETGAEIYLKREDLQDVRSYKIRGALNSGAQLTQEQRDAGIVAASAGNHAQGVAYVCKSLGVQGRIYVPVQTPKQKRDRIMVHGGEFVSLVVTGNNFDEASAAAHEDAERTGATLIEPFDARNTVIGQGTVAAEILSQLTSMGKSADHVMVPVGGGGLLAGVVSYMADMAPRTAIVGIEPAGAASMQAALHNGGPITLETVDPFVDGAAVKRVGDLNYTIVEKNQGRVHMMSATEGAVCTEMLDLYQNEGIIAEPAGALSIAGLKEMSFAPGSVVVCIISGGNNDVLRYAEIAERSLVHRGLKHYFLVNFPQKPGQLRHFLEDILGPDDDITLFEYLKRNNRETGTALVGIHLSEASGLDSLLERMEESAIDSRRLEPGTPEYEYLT
As to conditions: C. glutamicum MH20-22B; Morbach et al. 1995; cited from earlier work.

The target in experiment [6] is mutated threonine dehydratase V323A (Corynebacterium glutamicum, UniProt Q04513, V323A). As to conditions: 50 mM isoleucine; Morbach et al. 1995; cited from earlier work.
The target in experiment [7] is T4, catabolic threonine dehydratase (Escherichia coli, UniProt P0AGF6).
T4 construct: tdcB and ilvA coding regions were amplified by the Polymerase Chain Reaction (PCR); expressed in transfected cells; host or cells: Corynebacterium glutamicum ATCC 21799 carrying pAPE7 (trc:tdcB); cell-free crude extract
As to the kind of experiment: Isoleucine sensitivity of catabolic threonine dehydratase (tdcB) in crude extracts of C. glutamicum ATCC 21799 (pAPE7). The class given is biochemical, E. coli. Here is the method: Enzyme assays were performed with cell free crude extracts, prepared by the following method. Cells were harvested by centrifugation for 10 min at 5000×g at 4° C. and washed with 10 ml of the enzyme assay buffer (100 mM Tris-HCl, pH 7.5, containing 20 mM KCl, 5 mM MnSO4, 0.1 mM EDTA, and 2 mM dithiothreitol) (Jetten, M. S. M., et al., Appl. Microbiol. Biotechnol. 41:47-52 (1994)). The cell pellet was resuspended in the same buffer containing a protease inhibitor cocktail (Boehringer Mannheim, Germany) so that the final concentration was 20 g dry cell weight·l^−1. Resuspended cells were disrupted with a glass bead mixer (5100 Mixer-Mill, SPEX, Metuchen, N.J.). 2.5 ml of bacterial suspension was poured in a frozen steel vial containing 5 g of cold 106 μm-diameter glass beads (Sigma) and one stainless steel ball bearing. The vials containing bacterial suspension and glass beads were vigorously shaken at 4° C. using the mixer by 10 cycles of 30 sec shaking separated by rest cycles of one minute. Cell debris were removed by centrifugation for 20 min at 47000×g at 4° C. The supernatant (crude extract) was then tested for enzyme activity. Protein concentrations were determined by the method of Bradford (Bradford, M. M., Anal. Biochem. 72:248-254 (1976)) with the Bio-Rad (Hercules, Calif.) protein assay kit using bovine serum albumin as a standard.
as §5
In order to confirm the insensitivity to isoleucine of catabolic dehydratase expressed in a lysine producing strain of C. glutamicum, threonine dehydratase activities were measured in crude extracts of strains ATCC21799 and ATCC21799 carrying pAPE7 at different concentrations of isoleucine (FIG. 3). […]

Here are results for seven compounds from patent US6987017B2, “Methods for producing L-isoleucine” (Massachusetts Institute of Technology, priority 1999, dated 2006).

T4 sequence (P0AGF6 whole entry): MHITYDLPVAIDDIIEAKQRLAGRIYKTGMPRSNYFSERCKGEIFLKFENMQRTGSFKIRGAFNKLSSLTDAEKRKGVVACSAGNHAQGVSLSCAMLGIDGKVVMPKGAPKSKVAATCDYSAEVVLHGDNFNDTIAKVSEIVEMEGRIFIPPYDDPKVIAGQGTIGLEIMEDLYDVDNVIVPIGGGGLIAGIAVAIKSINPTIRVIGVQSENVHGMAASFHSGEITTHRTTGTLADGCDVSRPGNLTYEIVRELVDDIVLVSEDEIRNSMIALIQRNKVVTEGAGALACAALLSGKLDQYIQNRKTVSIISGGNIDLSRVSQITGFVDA
Sequence of mutated threonine dehydratase V323A (Q04513 whole entry V323A): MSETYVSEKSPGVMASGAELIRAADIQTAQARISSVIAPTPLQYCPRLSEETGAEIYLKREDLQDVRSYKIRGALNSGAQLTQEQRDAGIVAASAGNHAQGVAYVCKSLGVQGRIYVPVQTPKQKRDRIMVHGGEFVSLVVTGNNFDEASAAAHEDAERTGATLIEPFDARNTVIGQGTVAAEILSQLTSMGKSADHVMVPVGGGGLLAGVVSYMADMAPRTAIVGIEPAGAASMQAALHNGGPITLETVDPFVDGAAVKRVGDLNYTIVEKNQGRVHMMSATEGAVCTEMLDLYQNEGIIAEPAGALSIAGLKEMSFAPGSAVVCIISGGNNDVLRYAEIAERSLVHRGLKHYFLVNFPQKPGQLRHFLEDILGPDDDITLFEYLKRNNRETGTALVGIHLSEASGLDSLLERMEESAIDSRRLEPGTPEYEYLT
T2 sequence (P0AGF6 whole entry): as the sequence (P0AGF6 whole entry) above

`C[C@H](N)C(=O)O` [Alanine, alanine]: the Specific growth rate in experiment [1] was found to be 0.17 h⁻¹.

`NCC(=O)O` [Glycine, glycine]: in experiment [1], the Specific growth rate was determined as 0.17 h⁻¹.

Turning to `CC(C)S[C@@H]1O[C@H](CO)[C@H](O)[C@H](O)[C@H]1O` [IPTG, isopropyl-β-D-thiogalactopyranoside], the “effect of IPTG addition on threonine dehydratase” value with C. glutamicum ATCC 21799 was “did not lead to an increase”. Moreover, the “catabolic threonine dehydratase concentration relative to original enzyme after addition of IPTG” value in experiment [2] amounted to 15 fold. In addition, in experiment [3], the “increase in the level of threonine dehydratase after addition of IPTG” value worked out at 20 fold.

The compound `CSCC[C@H](N)C(=O)O` [Methionine, methionine] registered a Specific growth rate in experiment [1] of 0.26 h⁻¹.

Regarding `CC(C)[C@H](N)C(=O)O` [Valine, valine], the Specific growth rate in experiment [1] turned out to be 0.24 h⁻¹.

As to `CCC(=O)C(=O)O` [alpha-ketobutyrate], the “affinity of AHAS for alpha-ketobutyrate relative to pyruvate” value in the experiment on AHAS is listed as 3 fold.

The remaining activity is the activity still measured, relative to the control. Usually inhibition stands for how much of the control response was suppressed. A low value points to a weak effect. On to `CC[C@H](C)[C@H](N)C(=O)O` [isoleucine], for which the “isoleucine concentration that totally inhibits the native (anabolic) threonine dehydratase” value in experiment [4] is recorded as 15 mM. Also, the “threonine dehydratase activity of AB1255 (pAPE5) extracts in the presence of isoleucine” value at tdcB gene product is “about 80 μmol product·min^−1·mg protein^−1”. The “isoleucine concentration giving complete inhibition of the endogenous threonine dehydratase” value in experiment [5] is 5 mM. The “remaining activity of mutated threonine dehydratase V323A” value in [6] is 22%. For the same compound, the remaining activity at 50000 µM in [7] (50 mM isoleucine, read-out: remaining activity of catabolic threonine dehydratase of E. coli) lay within 70 to 80%. In [7] (200 mM isoleucine), the inhibition at 200000 µM came to 40% and the “retained original activity of catabolic threonine dehydratase” value was 60%.
